Reference: US6235284A, “Synthetic polypeptides belonging to the hepatitis C virus (HCV) and which can be used especially for detecting the latter” (Bio Merieux, priority 1992, dated 2001)

System: anti-HCV antibodies (HCV-positive sera)
Assay: ELISA detection of anti-HCV antibodies in HCV-positive sera with adsorbed peptides
Format: binding, human
Procedure: The reactivity of these three peptides towards the sera of individuals infected with the hepatitis C virus, termed (HCV) positive, was evaluated in an ELISA test according to the procedure described below.
Detection of anti-HCV Antibodies by ELISA
The wells of a microtiter plate of "NUNC MAXISORB™" trademark are saturated with 100 μl of a solution containing the peptide or a mixture of peptides (10 μg/ml) for 2 hours at 37° C. The plate is then emptied, then washed with a wash buffer containing 0.05% TWEEN™ 20(polysorbate 20). The wells are saturated with 100 μl of wash buffer supplemented with 10% goat serum (v/v), then incubated for 30 minutes at 37° C., then washed again as above. The sera to be analyzed are diluted to the appropriate dilution with saturation buffer. The incubation of the sera is 1 hour at 37° C. The wells are again washed. The solution of conjugate (goat IgG to human IgG labelled with peroxidase) at a dilution of 1/1000 in the saturation buffer is then added and the incubation lasts for 90 minutes at 37° C. After washing, the solution of orthophenylenediamine substrate is added. After 10 minutes, the reaction is stopped with 50 μl of H2 SO4 and the optical density is read at 492 nm. It should be noted that all the tests were carried out in duplicate.
For that, the different peptides are adsorbed on the microplates at a concentration of 10 μg/ml and the sera are used at 1/100 dilution.
The values obtained, which are collated in Table 1 below, correspond to the optical density (OD) multiplied by 10^3, at 492 nm.
For each serum the experiment was carried out in duplicate. The **** are values outside the upper scale.
The different peptides are absorbed onto microplates at a concentration of 10 μg/ml and the sera are used at the dilution stated.
The values obtained, which are collated in Table 2 below, correspond to the optical density at 492 nm. All the experiments were carried out in duplicate.
Each serum was, in a first instance, tested at the dilution 1/100.
The values given correspond to the optical density read at 492 nm multiplied by the factor 10^3.

Substance | optical density at 492 nm (Table 4, serum A 8, 1/1000) [OD × 10^3] | optical density at 492 nm (Table 4, serum A 8, 1/10,000) [OD × 10^3] | optical density at 492 nm (Table 4, serum A 9, 1/1000) [OD × 10^3] | optical density at 492 nm (Table 4, serum A 9, 1/10,000) [OD × 10^3] | optical density at 492 nm (Table 4, serum A 10, 1/1000) [OD × 10^3] | optical density at 492 nm (Table 4, serum A 10, 1/10,000) [OD × 10^3] | optical density at 492 nm (Table 4, serum A 11, 1/100) [OD × 10^3] | optical density at 492 nm (Table 4, serum A 11, 1/1000) [OD × 10^3] | optical density at 492 nm (Table 4, serum A 11, 1/10,000) [OD × 10^3] | optical density at 492 nm (Table 4, serum A 12, 1/10,000) [OD × 10^3] | optical density at 492 nm (Table 4, serum P 1, 1/100) [OD × 10^3] | optical density at 492 nm (Table 4, serum P 2, 1/100) [OD × 10^3] | optical density at 492 nm (Table 4, serum P 3, 1/100) [OD × 10^3] | optical density at 492 nm (Table 4, serum P 4, 1/1000) [OD × 10^3] | optical density at 492 nm (Table 4, serum P 4, 1/10,000) [OD × 10^3] | optical density at 492 nm (Table 4, serum P 5, 1/10,000) [OD × 10^3] | optical density at 492 nm (Table 4, serum P 7, 1/10,000) [OD × 10^3] | optical density at 492 nm (Table 4, serum P 8, 1/10,000) [OD × 10^3] | optical density at 492 nm (Table 4, serum P 10, 1/100) [OD × 10^3] | optical density at 492 nm (Table 4, serum P 14, 1/10,000) [OD × 10^3] | further results
P27Y: peptide corresponding to the amino acid sequence 7 to 35 of the CORE protein (PQRKTKRNTNRRPQDVKFPGGGQIVGGVY) | 1198 | 118 | 1388 | 182 | 334 | 31 | 1937 | 226 | 33 | 365 | 620 | 891 | 1470 | 2111 | 324 | 856 | 1667 | 654 | 60 | 566 | optical density at 492 nm (Table 4, serum A 10, 1/100): 2308 OD × 10^3; optical density at 492 nm (Table 4, serum P 16, 1/1000): 913 OD × 10^3; optical density at 492 nm (Table 4, serum P 16, 1/10,000): 104 OD × 10^3; optical density at 492 nm (Table 4, serum P 17, 1/100): 2300 OD × 10^3; optical density at 492 nm (Table 4, serum P 23, 1/100): 138 OD × 10^3; optical density at 492 nm (Table 4, serum P 24, 1/100): 1063 OD × 10^3; optical density at 492 nm (Table 4, serum P 29, 1/100): 347 OD × 10^3; optical density at 492 nm (Table 4, serum P 30, 1/100): 2274 OD × 10^3
P37G: peptide corresponding to the amino acid sequence 7 to 45 of the CORE protein (PQRKTKRNTNRRPQDVKFPGGGQIVGGVYLLPRRGPRLG) | – | – | – | – | – | – | – | – | – | – | – | – | – | – | – | – | – | – | – | – | optical density at 492 nm (Table 5, serum A8, 1/10,000): 525 OD × 10^3; optical density at 492 nm (Table 5, serum A 9, 1/1000): 2059 OD × 10^3; optical density at 492 nm (Table 5, serum A 9, 1/10,000): 275 OD × 10^3; optical density at 492 nm (Table 5, serum A10, 1/10,000): 1215 OD × 10^3; optical density at 492 nm (Table 5, serum A11, 1/10,000): 321 OD × 10^3; optical density at 492 nm (Table 5, serum A12, 1/10,000): 823 OD × 10^3; optical density at 492 nm (Table 5, serum A13, 1/10,000): 1061 OD × 10^3; optical density at 492 nm (Table 5, serum A14, 1/1000): 539 OD × 10^3; optical density at 492 nm (Table 5, serum A14, 1/10,000): 65 OD × 10^3; optical density at 492 nm (Table 5, serum A15, 1/10,000): 905 OD × 10^3; optical density at 492 nm (Table 5, serum A16, 1/10,000): 2003 OD × 10^3; optical density at 492 nm (Table 5, serum A19, 1/10,000): 446 OD × 10^3; optical density at 492 nm (Table 5, serum A20, 1/10,000): 2338 OD × 10^3; optical density at 492 nm (Table 5, serum A21, 1/1000): 652 OD × 10^3; optical density at 492 nm (Table 5, serum A21, 1/10,000): 90 OD × 10^3; optical density at 492 nm (Table 5, serum A22, 1/1000): 702 OD × 10^3; optical density at 492 nm (Table 5, serum A22, 1/10,000): 102 OD × 10^3; optical density at 492 nm (Table 5, serum A23, 1/10,000): 557 OD × 10^3; reactivity towards HCV-positive sera (in words): little or no difference is observed in reactivity
S32Y: peptide corresponding to the amino acid sequence 2 to 35 of the CORE protein (STNPKPQRKTKRNTNRRPQDVKFPGGGQIVGGVY) | 1372 | 173 | 1941 | 297 | 373 | 33 | 2240 | 228 | 36 | 588 | 703 | 1177 | 1576 | 2165 | 369 | 1242 | 1932 | 1068 | 78 | 601 | optical density at 492 nm (Table 4, serum P 16, 1/1000): 983 OD × 10^3; optical density at 492 nm (Table 4, serum P 16, 1/10,000): 124 OD × 10^3; optical density at 492 nm (Table 4, serum P 23, 1/100): 157 OD × 10^3; optical density at 492 nm (Table 4, serum P 24, 1/100): 1214 OD × 10^3; optical density at 492 nm (Table 4, serum P 29, 1/100): 400 OD × 10^3
